Data taken from patent US6355799B1, “Substituted benzene compounds, process for their preparation, and herbicidal and defoliant compositions containing them” (ISK Americas Incorporated, priority 1997, dated 2002).

Assays:
Assay type in all cases: in vivo
[1] = test system: redroot pigweed (Amaranthus retroflexus, AMARE); test: Pre-emerge test, greenhouse herbicide activity screening; conditions: phytotoxicity rating 0-100, 14 days after application
Outline: (§1)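 Plants grown in 10 cm pots of sandy loam mix received acetone-dissolved compounds through a moving flat-fan nozzle. Doses ranged from 15 to 1000 g ai/ha. Pre-emerge pots were seeded one day earlier, post-emerge pots 8–21 days earlier. Fourteen days on, each pot was graded 0–100 for damage.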

[2] = test system: barnyardgrass (Echinochloa crus-galli, ECHCG); test: as above; conditions: phytotoxicity rating 0-100, 14 days after application
Outline: (§2)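 Rating: 0–100 visual injury, 14 DAA. Application: acetone, 187 l/ha, 15–1000 g ai/ha, flat-fan track sprayer with nozzle 40–45 cm above soil or canopy. Post-emerge runs used 0.25% v/v surfactant on 2–3 leaf plants.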

[3] = test system: common ragweed (Ambrosia artemisizfolia L., AMBEL); test: as above; conditions: phytotoxicity rating 0-100, 14 days after application
Outline: as §2

[4] = test system: green foxtail (Setaria viridis, SETVI); test: as above; conditions: phytotoxicity rating 0-100, 14 days after application
Outline: as §2

[5] = test system: ivyleaf morningglory (Ipomoea hederacea, IPOHE); test: as above; conditions: phytotoxicity rating 0-100, 14 days after application
Outline: as §2

[6] = test system: johnsongrass (Sorghum halepense, SORHA); test: as above; conditions: phytotoxicity rating 0-100, 14 days after application
Outline: as §2

[7] = test system: lambsquarters (Chenopodium album, CHEAL); test: as above; conditions: phytotoxicity rating 0-100, 14 days after application
Outline: as §2

[8] = test system: large crabgrass (Digitaria sanguinalis, DIGSA); test: as above; conditions: phytotoxicity rating 0-100, 14 days after application
Outline: as §2

[9] = test system: sicklepod (Cassia obtusifolia, CASOB); test: as above; conditions: phytotoxicity rating 0-100, 14 days after application
Outline: as §2

[10] = test system: velvetleaf (Abutilon theophrasti, ABUTH); test: as above; conditions: phytotoxicity rating 0-100, 14 days after application
Outline: as §2

[11] = test system: field corn (Zea mays L., var. Dekalb 535, CORN); test: Pre-emerge test, crop safety; conditions: crop damage rating 0-100, 14 days after application
Outline: (§3)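 Sandy loam pots; pre-emerge: sown 1 d pre-spray, surface-watered after, then bottom-watered. Post-emerge: sown 8–21 d before, 2–3 leaf stage, + 0.25% v/v NIS, bottom-watered. Acetone, 187 l/ha track spray, 15–1000 g ai/ha. 0–100 injury score, day 14.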

[12] = test system: upland rice (Oryza sp., var. Tebonnet, RICE); test: Pre-emerge test, crop safety; conditions: crop damage rating 0-100, 14 days after application
Outline: as §3

[13] = test system: barnyardgrass (Echinochloa crus-galli, ECHCG); test: Post-emerge test, greenhouse herbicide activity screening; conditions: post-emerge, 14 days after application, rating scale 0-100
Outline: as §2

[14] = test system: common ragweed (Ambrosia artemisizfolia L., AMBEL); test: as above; conditions: post-emerge, 14 days after application, rating scale 0-100
Outline: as §2

[15] = test system: green foxtail (Setaria viridis, SETVI); test: as above; conditions: post-emerge, 14 days after application, rating scale 0-100
Outline: as §2

[16] = test system: ivyleaf morningglory (Ipomoea hederacea, IPOHE); test: as above; conditions: post-emerge, 14 days after application, rating scale 0-100
Outline: as §2

[17] = test system: johnsongrass (Sorghum halepense, SORHA); test: as above; conditions: post-emerge, 14 days after application, rating scale 0-100
Outline: as §2

[18] = test system: lambsquarters (Chenopodium album, CHEAL); test: as above; conditions: post-emerge, 14 days after application, rating scale 0-100
Outline: as §2

[19] = test system: large crabgrass (Digitaria sanguinalis, DIGSA); test: as above; conditions: post-emerge, 14 days after application, rating scale 0-100
Outline: as §2

[20] = test system: redroot pigweed (Amaranthus retroflexus, AMARE); test: as above; conditions: post-emerge, 14 days after application
Outline: as §2

[21] = test system: sicklepod (Cassia obtusifolia, CASOB); test: as above; conditions: post-emerge, 14 days after application, rating scale 0-100
Outline: as §2

[22] = test system: velvetleaf (Abutilon theophrasti, ABUTH); test: as above; conditions: post-emerge, 14 days after application, rating scale 0-100
Outline: as §2

[23] = test system: field corn (Zea mays L., var. Dekalb 535, CORN); test: Post-emerge test, crop safety; conditions: post-emerge, 14 days after application, rating scale 0-100
Outline: as §1

[24] = test system: upland rice (Oryza sp., var. Tebonnet, RICE); test: Post-emerge test, crop safety; conditions: post-emerge, 14 days after application, rating scale 0-100
Outline: as §1

Cn1c(C(F)(F)F)cc(=O)n(-c2c(F)cc(Cl)c(O)c2NC(=O)c2ccc3ccccc3c2)c1=O [Compound 2-194, 2-(2,4-chloro-6-fluoro-3-hydroxy-2-naphthoylamidophenyl)-1-methyl-6-trifluoromethyl-2,4(1H, 3H)-pyrimidinedione]
85: Pre-emerge Herbicidal Activity CHEAL ([7]; 250 g ai/ha)
0: Pre-emerge Herbicidal Activity ECHCG ([2]; 63 g ai/ha) | Pre-emerge Herbicidal Activity ECHCG ([2]; 250 g ai/ha) | Pre-emerge Herbicidal Activity AMBEL ([3]; 63 g ai/ha) | Pre-emerge Herbicidal Activity AMBEL ([3]; 250 g ai/ha) | Pre-emerge Herbicidal Activity SETVI ([4]; 63 g ai/ha) | Pre-emerge Herbicidal Activity IPOHE ([5]; 63 g ai/ha) | Pre-emerge Herbicidal Activity SORHA ([6]; 63 g ai/ha) | Pre-emerge Herbicidal Activity SORHA ([6]; 250 g ai/ha) | Pre-emerge Herbicidal Activity DIGSA ([8]; 63 g ai/ha) | Pre-emerge Herbicidal Activity CASOB ([9]; 63 g ai/ha) | Pre-emerge Herbicidal Activity CORN ([11]; 63 g ai/ha) | Pre-emerge Herbicidal Activity CORN ([11]; 250 g ai/ha) | Pre-emerge Herbicidal Activity RICE ([12]; 63 g ai/ha) | phytotoxicity rating ECHCG ([13]; 63 g ai/ha) | phytotoxicity rating SORHA ([17]; 63 g ai/ha) | phytotoxicity rating DIGSA ([19]; 63 g ai/ha)
40: Pre-emerge Herbicidal Activity CHEAL ([7]; 63 g ai/ha) | phytotoxicity rating RICE (crop damage) ([24]; 250 g ai/ha)
95: phytotoxicity rating AMBEL ([14]; 63 g ai/ha) | phytotoxicity rating IPOHE ([16]; 63 g ai/ha) | phytotoxicity rating ABUTH ([22]; 63 g ai/ha)
5: phytotoxicity rating CORN (crop damage) ([23]; 63 g ai/ha) | phytotoxicity rating CORN (crop damage) ([23]; 250 g ai/ha)
20: Pre-emerge Herbicidal Activity SETVI ([4]; 250 g ai/ha) | Pre-emerge Herbicidal Activity IPOHE ([5]; 250 g ai/ha) | phytotoxicity rating SETVI ([15]; 63 g ai/ha) | phytotoxicity rating SETVI ([15]; 250 g ai/ha) | phytotoxicity rating DIGSA ([19]; 250 g ai/ha)
90: Pre-emerge Herbicidal Activity ABUTH ([10]; 63 g ai/ha) | phytotoxicity rating AMBEL ([14]; 250 g ai/ha) | phytotoxicity rating CHEAL ([18]; 63 g ai/ha)
99: phytotoxicity rating IPOHE ([16]; 250 g ai/ha) | phytotoxicity rating AMARE ([20]; 63 g ai/ha, rating scale 0-100 (0 no damage, 100 complete death)) | phytotoxicity rating AMARE ([20]; 250 g ai/ha, rating scale 0-100)
10: Pre-emerge Herbicidal Activity DIGSA ([8]; 250 g ai/ha) | Pre-emerge Herbicidal Activity CASOB ([9]; 250 g ai/ha) | Pre-emerge Herbicidal Activity RICE ([12]; 250 g ai/ha) | phytotoxicity rating ECHCG ([13]; 250 g ai/ha) | phytotoxicity rating SORHA ([17]; 250 g ai/ha)
30: phytotoxicity rating RICE (crop damage) ([24]; 63 g ai/ha)
100: Pre-emerge Herbicidal Activity AMARE ([1]; 250 g ai/ha) | Pre-emerge Herbicidal Activity ABUTH ([10]; 250 g ai/ha) | phytotoxicity rating CHEAL ([18]; 250 g ai/ha) | phytotoxicity rating ABUTH ([22]; 250 g ai/ha)
50: phytotoxicity rating CASOB ([21]; 63 g ai/ha)
75: Pre-emerge Herbicidal Activity AMARE ([1]; 63 g ai/ha)
70: phytotoxicity rating CASOB ([21]; 250 g ai/ha)
